Active and inactive are the calls of the source. No cut-off for these calls is given here.
What was measured:
Kallikrein-14 = target: T1, Kallikrein-14 (Homo sapiens, UniProt Q9P0G3); assay: Inhibition of human kallikrein 14 measured after 15 mins at pH 8 by fluorescence assay
T1 sequence (Q9P0G3 whole entry): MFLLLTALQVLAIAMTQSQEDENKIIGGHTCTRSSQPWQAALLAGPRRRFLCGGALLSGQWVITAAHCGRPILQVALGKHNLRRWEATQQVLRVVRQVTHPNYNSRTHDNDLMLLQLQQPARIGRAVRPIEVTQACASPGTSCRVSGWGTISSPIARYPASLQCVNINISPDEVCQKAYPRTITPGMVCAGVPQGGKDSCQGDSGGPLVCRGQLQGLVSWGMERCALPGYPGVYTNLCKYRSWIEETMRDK

[1] = target: Kallikrein-5 (Homo sapiens) (UniProt Q9Y337); assay: Transient inhibition of human kallikrein 5 assessed as spontaneous reactivation up to 6 hrs
[2] = target: T2, Kallikrein-14 (Homo sapiens) (UniProt Q9P0G3); assay: Binding affinity to human kallikrein 14 assessed as half life of deacylated enzyme
T2 sequence (whole entry): T1 sequence (Q9P0G3 whole entry)

[3] = target: T3, Suppressor of tumorigenicity 14 protein (Homo sapiens) (UniProt Q9Y5Y6); assay: Binding affinity to human matriptase assessed as half life of deacylated enzyme
T3 sequence (whole entry): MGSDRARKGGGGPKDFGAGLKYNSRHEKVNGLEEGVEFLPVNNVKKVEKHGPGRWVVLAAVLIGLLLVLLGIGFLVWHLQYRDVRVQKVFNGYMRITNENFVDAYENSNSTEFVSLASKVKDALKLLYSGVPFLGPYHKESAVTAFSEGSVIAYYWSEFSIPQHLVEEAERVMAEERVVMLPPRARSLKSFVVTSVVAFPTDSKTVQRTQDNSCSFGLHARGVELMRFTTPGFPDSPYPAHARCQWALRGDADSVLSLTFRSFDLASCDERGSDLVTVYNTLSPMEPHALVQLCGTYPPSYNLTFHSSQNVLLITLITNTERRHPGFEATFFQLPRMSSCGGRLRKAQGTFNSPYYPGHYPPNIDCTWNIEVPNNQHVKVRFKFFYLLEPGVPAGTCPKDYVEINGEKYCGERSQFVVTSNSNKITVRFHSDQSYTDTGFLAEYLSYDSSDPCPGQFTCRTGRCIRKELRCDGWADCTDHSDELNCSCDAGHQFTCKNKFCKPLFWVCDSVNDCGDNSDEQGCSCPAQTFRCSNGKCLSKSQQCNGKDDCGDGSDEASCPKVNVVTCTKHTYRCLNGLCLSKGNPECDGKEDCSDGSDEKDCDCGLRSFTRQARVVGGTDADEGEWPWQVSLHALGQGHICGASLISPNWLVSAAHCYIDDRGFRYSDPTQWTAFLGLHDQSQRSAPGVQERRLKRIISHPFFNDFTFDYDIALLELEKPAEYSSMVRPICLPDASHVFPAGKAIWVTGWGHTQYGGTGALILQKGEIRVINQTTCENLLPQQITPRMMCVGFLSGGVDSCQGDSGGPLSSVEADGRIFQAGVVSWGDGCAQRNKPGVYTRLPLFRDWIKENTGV

Kallikrein-7 [4] = target: T4, Kallikrein-7 (Homo sapiens, UniProt P49862); details: 296 nM
Target sequence in this assay (P49862 30-253 limits assumed): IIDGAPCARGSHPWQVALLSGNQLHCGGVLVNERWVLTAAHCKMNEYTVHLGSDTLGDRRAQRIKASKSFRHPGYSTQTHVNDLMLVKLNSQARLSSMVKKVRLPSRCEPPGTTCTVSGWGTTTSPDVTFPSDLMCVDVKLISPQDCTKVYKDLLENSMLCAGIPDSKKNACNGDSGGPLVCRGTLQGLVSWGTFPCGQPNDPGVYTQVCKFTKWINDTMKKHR
Description: Inhibition of human kallikrein 7 at 296 nM to 1 uM at pH 8 by fluorescence assay

Kallikrein-5 [5] = target: T5, Kallikrein-5 (Homo sapiens, UniProt Q9Y337); assay: Inhibition of human kallikrein 5 measured after 15 mins at pH 8 by fluorescence assay
T5 sequence (Q9Y337 whole entry): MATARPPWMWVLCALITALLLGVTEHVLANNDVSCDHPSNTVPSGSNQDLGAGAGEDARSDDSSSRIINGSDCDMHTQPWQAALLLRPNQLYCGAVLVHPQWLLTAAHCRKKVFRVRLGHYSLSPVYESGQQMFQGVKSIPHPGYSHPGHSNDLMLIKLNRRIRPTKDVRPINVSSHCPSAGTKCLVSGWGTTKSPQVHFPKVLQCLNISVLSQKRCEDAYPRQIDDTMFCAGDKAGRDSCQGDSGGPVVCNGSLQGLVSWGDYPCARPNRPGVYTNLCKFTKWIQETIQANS

[6] = Cytotoxicity against human keratinocytes at 1 to 10 uM after 48 hrs by neutral red uptake assay; type: cell-based; details: keratinocyte
[7] = target: T6, Suppressor of tumorigenicity 14 protein (Homo sapiens, UniProt Q9Y5Y6); assay: Inhibition of human matriptase measured after 15 mins at pH 8 by fluorescence assay
T6 sequence (Q9Y5Y6 whole entry): T3 sequence (whole entry)

Kallikrein-7 [8] = target: T4, Kallikrein-7; assay: Inhibition of human kallikrein 7 measured after 15 mins at pH 8 by fluorescence assay
Target sequence in this assay (P49862 whole entry): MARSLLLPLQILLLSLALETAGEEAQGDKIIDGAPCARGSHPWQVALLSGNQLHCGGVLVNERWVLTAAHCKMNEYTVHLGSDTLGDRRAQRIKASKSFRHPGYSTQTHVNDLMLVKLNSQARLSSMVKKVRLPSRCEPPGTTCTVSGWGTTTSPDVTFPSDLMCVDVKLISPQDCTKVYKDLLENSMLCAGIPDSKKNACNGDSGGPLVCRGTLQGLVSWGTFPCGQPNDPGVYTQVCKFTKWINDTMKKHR

Kallikrein-5 [9] = target: T5, Kallikrein-5; assay: Inhibition of human kallikrein 5 measured after 15 mins at pH 8 by double-reciprocal plot analysis
[10] = target: Kallikrein-5 (Homo sapiens) (UniProt Q9Y337); assay: Inhibition of human kallikrein 5 at 296 nM to 1 uM at pH 8 by fluorescence assay; details: TDE = time-dependent effect
[11] = target: Kallikrein-5 (Homo sapiens) (UniProt Q9Y337); assay: Binding affinity to human kallikrein 5 assessed as deacylation of enzyme relative to control
Kallikrein-7 [12] = target: T4, Kallikrein-7; assay: Binding affinity to human kallikrein 7 assessed as deacylation of enzyme relative to control
Target sequence in this assay (P49862 30-253 limits assumed): as the sequence (P49862 30-253 limits assumed) above

Kallikrein-7 [13] = target: T4, Kallikrein-7; assay: Binding affinity to human kallikrein 7 assessed as half life of deacylated enzyme
Target sequence in this assay (P49862 30-253 limits assumed): as above

Kallikrein-7 [14] = target: T4, Kallikrein-7; assay: Inhibition of human kallikrein 7 at 0.5 to 8 uM at pH 8 by fluorescence assay; details: TDE = time-dependent effect
Target sequence in this assay (P49862 30-253 limits assumed): as above

[15] = target: Kallikrein-5 (Homo sapiens) (UniProt Q9Y337); assay: Inhibition of human kallikrein 5 at 0.5 to 8 uM at pH 8 by fluorescence assay; details: TDE = time-dependent effect

Row | Structure (SMILES) | IC50 (Kallikrein-14; read-out: IC50) [nM] | T1/2 [2] [min] | IC50 (Kallikrein-5 [5]; read-out: IC50) [nM] | IC50 ([7]; read-out: IC50) [nM] | IC50 (Kallikrein-7 [8]; read-out: IC50) [nM] | fold change (FC) (Kallikrein-7 [12]) | Activity [6] | other results
1 | Nc1nc(-c2cccnc2)nn1C(=O)c1ccc(Cl)cc1Cl | – | – | > 30000 | – | 3500 | – | – | IC50 (Kallikrein-14): Not Active; IC50 [7]: Not Active
2 | Nc1nc(-c2cccnc2)nn1C(=O)c1ccc(Cl)cc1 | > 30000 | – | 1140 | > 30000 | 220 | 2 | – | fold change (FC) [11]: 8
3 | COc1ccc(C(=O)n2cnnc2N)cc1 | 3430 | 5 | 990 | > 30000 | 610 | – | Non-toxic | –
4 | CSc1nc(-c2ccc(Cl)cc2)nn1C(=O)c1ccccc1 | 970 | 5 | 140 | 420 | 660 | 0.2 | Non-toxic | T1/2 [3]: 5 min; T1/2 (Kallikrein-7 [13]): 39 min
5 | C/C(=C\c1ccccc1)C(=O)n1nnc2ccccc21 | – | – | – | – | – | – | – | IC50 (Kallikrein-14): Not Active; IC50 (Kallikrein-5 [5]): Not Active; IC50 [7]: Not Active; IC50 (Kallikrein-7 [8]): Not Active

Continued, in another order:

Row | IC50 (Kallikrein-14; read-out: IC50) [nM] | T1/2 [2] [min] | IC50 (Kallikrein-5 [5]; read-out: IC50) [nM] | IC50 ([7]; read-out: IC50) [nM] | IC50 (Kallikrein-7 [8]; read-out: IC50) [nM] | fold change (FC) (Kallikrein-7 [12]) | Structure (SMILES) | Activity [6] | other results
6 | 1290 | 5 | 270 | 570 | 40 | – | Cc1ccc(C(=O)n2nc(-c3cccnc3)nc2N)cc1 | Non-toxic | inhibition [1]: Active; T1/2 [3]: 5 min; inhibition (Kallikrein-7 [4]): tde; Ki (Kallikrein-5 [9]): 4.4 µM; inhibition [10]: tde
7 | > 30000 | – | 1300 | > 30000 | 230 | 0.2 | COc1ccc(C(=O)n2nc(-c3ccccc3)nc2N)cc1OC | – | fold change (FC) [11]: 4; inhibition (Kallikrein-7 [14]): tde; inhibition [15]: tde

From ChEMBL document CHEMBL2406906, “1,2,4-Triazole derivatives as transient inactivators of kallikreins involved in skin diseases” (Bioorg Med Chem Lett, 2013)
